Results published in US20240165127A1, “CONTRAST AGENT FOR DIAGNOSIS OF VASCULAR DISEASE CONTAINING GADOLINIUM-BASED COMPOUND AS ACTIVE INGREDIENT AND SYNTHESIS METHOD THEREFOR” (DAEGU CATHOLIC UNIVERSITY INDUSTRY ACADEMIC COOPERATION …, priority 2022, published 2024).
Values joined by “and” are separate entries in the source; they are usually repeats but may differ in a detail not shown here. Equal values may be shown once.

Tests used:
[1] = In vitro molar longitudinal relaxivity (r1), 9.4T MRI, RARE method; assay type: physicochemical; details: 25° C.
Experimental: (§1) To obtain quantitative information on the efficacy of the Gd-DOTA-click-SF probe and Dotarem as MRI contrast agents, the molar longitudinal relaxivities (r1) thereof were analyzed. At 25° C., 3.0T MRI was performed using the inversion recovery method, and 9.4T MRI was performed using the RARE (Rapid Acquisition with Refocused Echoes) method.

[2] = Transmetallation kinetics: stability of Gd(III) complex in presence of Zn(II) ions, ICP/MS; assay type: physicochemical; details: 1 mM complex, 250 mM ZnCl2 in phosphate buffer, 0 to 48 hours
Experimental: In vivo, the transmetallation of the Gd complex occurs because Gd^3+ ions compete with other endogenous cations and endogenous anions that destabilize the gadolinium complex and shift the dissociation equilibrium toward its free components. For this reason, the in vitro stability of the Gd(III) complex should be investigated in the presence of Zn(II) ions. 8 μL of a solution of 250 mM ZnCl2 in phosphate buffer was added to 1.5 mL of 1 mM Gd-DOTA-click-SF complex and the mixture was stirred. Thereafter, the solution was collected at 0, 2, 4, 6, 8, 24, and 48 hours and filtered. […] To compare the stability of Gd-DOTA-click-SF with that the clinical contrast agent Dotarem, the same procedure was repeated three times.

endothelial C166 cells = test: In vitro cell viability, CCK-8 assay; assay type: cell-based; details: 0.01 to 0.1 mM, 24 hours
Experimental: The cytotoxicity of the Gd-DOTA click-SF probe was assessed against macrophage RAW264.7 cells and endothelial C166 cells using the CCK-8 assay according to the instructions provided by the manufacturer. RAW264.7 cells and endothelial C166 cells were cultured in DMEM containing 10% FBS and 1% penicillin-streptomycin (10000 U/ml). 2.5×10^4 RAW 264.7 cells and 3×10^3 C166 cells per well in 100 μL of DMEM well were seeded in 96-well plates. The cells were cultured at 37° C. for 24 hours in a humidified atmosphere containing 5% CO2, and then for comparison, each of the Gd-DOTA-click-SF probe and Dotarem was added thereto at concentrations of 0.01, 0.025, 0.05, 0.075, and 0.1 mM, followed by incubation at 37° C. for 24 hours. Thereafter, the cells were treated with 10 μl of CCK-8 solution and further cultured for 2 hours at 37° C., and the absorbance of each well was measured at 450 nm using a microplate reader.

elastase activity = test: Ex vivo T1-weighted MRI, CNR and ICP/MS gadolinium content of aortas from rats with induced abdominal aortic aneurysm (AAA) and from healthy rats; design: species or system Sprague-Dawley (SD) rats; details: for T1-signal intensity in T1-weighted MRI: immersed at 1.28 mM for 1 hour, washed 3 times with PBS
Source text: As experimental animals, 7-week-old Sprague-Dawley (SD) rats were used. The rats were maintained on a 12-hour light-dark cycle with free access to water and feed for one week of acclimatization. Then, the rats were randomly divided into a normal control group and an experimental group (aortic aneurysm group), and each group was further divided into a Dotarem-administered group and a Gd-DOTA-click-SF-administered group. Accordingly, the rats were divided into a total of 4 groups, each consisting of 4 animals.
To induce an abdominal aortic aneurysm, rats were anesthetized by inhalation with 2 to 2.5% isoflurane, and then their abdomen was incised to expose the aortic branches. Next, 300 μL of 12U porcine pancreatic elastase was perfused for 10 minutes.
After 5 weeks, the aorta with induced abdominal aortic aneurysm was harvested, immersed in Dotarem or the Gd-DOTA-click-SF of the present disclosure at 1.28 mM for 1 hour under shaking. Then, it was taken out and washed 3 times with PBS. Finally, the samples were placed in PCR tubes filled with PBS and were examined by T1-weighted MRI. The same procedure was also applied to the aorta from the healthy normal control group, which was immersed in Dotarem or the Gd-DOTA-click-SF of the present disclosure at 1.28 mM for 1 hour under shaking. Then, it was taken out and washed 3 times with PBS. Finally, the samples were placed in PCR tubes filled with PBS and were examined by T1-weighted MRI.
The CNRs of the MRI results for the four groups, identified in Example 7, were examined, and the concentrations of gadolinium were measured using ICP/MS (ICP/MS 7700, Agilent, USA).

[3] = In vitro molar longitudinal relaxivity (r1), 3.0T MRI, inversion recovery method; assay type: physicochemical; details: 25° C., concentrations 0.01, 0.02, 0.04, 0.06, 0.08, and 0.1 mM
Experimental: as §1

9.4T r1 (molar longitudinal relaxivity) ([1]; concentrations 0.01, 0.02, 0.04, 0.06, 0.08, and 0.1 mM): 4.647 mM^−1s^−1 and 4.647^a mM^−1s^−1
9.4T r1 (molar longitudinal relaxivity) ([1]; concentrations 0.04, 0.08, 0.16, 0.32, and 0.64 mM): 5.064 mM^−1s^−1 and 5.064^b mM^−1s^−1
3.0T r1 (molar longitudinal relaxivity) [3]: 2.105 mM^−1s^−1 and 2.211^a mM^−1s^−1
Structure (SMILES): CNC[C@H](O)[C@@H](O)[C@H](O)[C@H](O)CO.O=C([O-])CN1CCN(CC(=O)[O-])CCN(CC(=O)O)CCN(CC(=O)[O-])CC1.[Gd+3] [Dotarem]
stability of Gd(III) complex (kinetic inertness, transmetallation) [2]: very stable in the presence of Zn(II) ions without transmetallation
cell viability / cytotoxicity (endothelial C166 cells): non-cytotoxic
T1-signal intensity in T1-weighted MRI (elastase activity; AAA aorta ex vivo): did not show high signal intensity
binding to the arterial wall (elastase activity; ex vivo aortas, after washing with PBS): very low
T1-signal intensity in T1-weighted MRI (elastase activity; healthy normal aorta ex vivo): did not show high signal intensity
